Assay results as given in patent US20170369492A1 (Takeda Pharmaceutical Company Limited, priority 2014, published 2017).

Biological target: T1, human GPR43 (Homo sapiens, UniProt O15552)
T1 construct: expressed in transfected cells
T1 sequence (O15552 1-330): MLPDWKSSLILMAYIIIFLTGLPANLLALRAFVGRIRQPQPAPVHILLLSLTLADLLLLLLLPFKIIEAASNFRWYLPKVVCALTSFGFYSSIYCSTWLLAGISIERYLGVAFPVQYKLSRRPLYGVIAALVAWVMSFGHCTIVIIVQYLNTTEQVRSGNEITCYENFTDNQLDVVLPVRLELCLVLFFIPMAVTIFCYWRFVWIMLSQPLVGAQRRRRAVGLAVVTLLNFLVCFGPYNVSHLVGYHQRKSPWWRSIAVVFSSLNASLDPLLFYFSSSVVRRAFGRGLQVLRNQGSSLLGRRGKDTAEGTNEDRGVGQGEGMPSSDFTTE
Experiment: Ca-Flux Functional Assay: Determination of Agonist/Positive Allosteric Modulator (PAM) Activity
Format: cell-based
Conditions: CHO-K1 Gα16 cells stably expressing human GPR43; compound added in the presence of EC20 sodium acetate; intracellular Ca2+ by FLIPR; agonist/PAM activity not distinguished
In short: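 FLIPR calcium read in CHO-K1 Gα16 cells stably expressing human GPR43, loaded with Calcium 5 dye in HBSS/HEPES/probenecid/BSA for 1 h at 37 °C. Compounds were tested in 10-point half-log series from 10 μM, co-added with sodium acetate at its EC20. EC50 taken from duplicate-well curves, capturing agonist or PAM activity without distinction.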

Row | Structure (SMILES) | EC50 [µM]
1 | COc1ccc(S(=O)(=O)c2c(N)n(C3CCCCC3)c3nccnc23)cc1Cl [Example 114, 7-[(3-chloro-4-methoxybenzene)-sulfonyl]-5-cyclohexyl-5H-pyrrolo[2,3-b]pyrazin-6-amine] | 0.206
2 | CN(C)c1ncnc2c(S(=O)(=O)c3ccccc3)c(N)n(C3CCCCC3)c12 [Example 34, 7-(benzenesulfonyl)-5-cyclohexyl-4-N,4-N-dimethyl-5H-pyrrolo[3,2-d]pyrimidine-4,6-diamine] | 5.98
3 | Nc1c(S(=O)(=O)N2CCN(CC(F)(F)F)CC2)c2nccnc2n1C1CCCCC1 [Example 105, 5-cyclohexyl-7-[4-(2,2,2-trifluoroethyl)-piperazine-1-sulfonyl]-5H-pyrrolo[2,3-b]pyrazin-6-amine] | 0.647
4 | Nc1c(S(=O)(=O)N2CC(n3cccn3)C2)c2nccnc2n1C1CCCCC1 [Example 101, 5-cyclohexyl-7-[3-(1H-pyrazol-1-yl)azetidine-1-sulfonyl]-5H-pyrrolo[2,3-b]pyrazin-6-amine] | 7.03
5 | CC1(C)CCN(S(=O)(=O)c2c(N)n(C3CCCCC3)c3nccnc23)C1 [Example 75, 5-cyclohexyl-7-(3,3-dimethylpyrrrolidine-1-sulfonyl)-5H-pyrrolo[2,3-b]pyrazin-6-amine] | 1.19
6 | Nc1c(S(=O)(=O)c2ccccc2F)c2nccnc2n1C1CCCCC1 [Example 111, 5-cyclohexyl-7-[(2-fluorobenzene)sulfonyl]-5H-pyrrolo[2,3-b]pyrazin-6-amine] | 0.209
7 | CN1CCN(S(=O)(=O)c2c(N)n(C3CCCCC3)c3nccnc23)CC1 [Example 63, 5-cyclohexyl-7-((4-methylpiperazin-1-yl)sulfonyl)-5H-pyrrolo[2,3-b]pyrazin-6-amine] | 7.95
8 | Nc1c(S(=O)(=O)c2ccccc2)c2nccnc2n1C1CCCOC1 (stereo not drawn) [Example 51, 7-(phenylsulfonyl)-5-(tetrahydro-2H-pyran-3-yl)-5H-pyrrolo[2,3-b]pyrazin-6-amine] | 6
9 | Nc1c(S(=O)(=O)N2CCC(CO)CC2)c2nccnc2n1C1CCCCC1 [Example 106, (1-{6-amino-5-cyclohexyl-5H-pyrrolo[2,3-b]pyrazine-7-sulfonyl}piperidin-4-yl)methanol] | 3.05
